Laboratory results: PubChem BioAssay (NCI)
Where “and” joins values, the source holds several entries; their conditions need not be identical. Identical values can stand only once.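 Grown in 96-well plates, cells were treated for 48 hours with each compound at five concentrations. Insufficient inhibition: endpoint recorded as highest concentration tested. The concentration for 50% growth inhibition is given as GI50. TGI marks complete inhibition of growth.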

What was measured:
Assay in all cases: NCI tumour cell line growth inhibition, 48 h
CAKI-1 renal = test system: CAKI-1 renal
UO-31 renal = test system: UO-31 renal
OVCAR-3 ovarian = test system: OVCAR-3 ovarian
MOLT-4 leukemia = test system: MOLT-4 leukemia
SW-620 colon = test system: SW-620 colon
SK-MEL-2 melanoma = test system: SK-MEL-2 melanoma
KM12 colon = test system: KM12 colon
SK-MEL-5 melanoma = test system: SK-MEL-5 melanoma
TK-10 renal = test system: TK-10 renal
DU-145 prostate = test system: DU-145 prostate

Row | Structure (SMILES) | GI50 (CAKI-1 renal) [µM] | TGI (CAKI-1 renal) [µM] | GI50 (UO-31 renal) [µM] | TGI (UO-31 renal) [µM] | GI50 (OVCAR-3 ovarian) [µM] | TGI (OVCAR-3 ovarian) [µM] | GI50 (MOLT-4 leukemia) [µM] | TGI (MOLT-4 leukemia) [µM] | GI50 (SW-620 colon) | TGI (SW-620 colon) [µM] | GI50 (SK-MEL-2 melanoma) | TGI (SK-MEL-2 melanoma) [µM] | GI50 (KM12 colon) | TGI (KM12 colon) [µM] | GI50 (SK-MEL-5 melanoma) [µM] | TGI (SK-MEL-5 melanoma) | GI50 (TK-10 renal) | TGI (TK-10 renal) [µM] | GI50 (DU-145 prostate) | TGI (DU-145 prostate) [µM]
1 | NC(CCl)=NCC12CC3CC(CC(C3)C1)C2 | 0.426 | 2.48 | 0.74 | 15.8 | 0.687 | 7.23 | 0.333 | 1.73 | 0.338 µM | 4.37 | 2.06 µM | 7.46 | 0.96 µM | 3.47 | 0.973 | 3.79 µM | 1.31 µM | 9.14 | 0.608 µM | 3.75
2 | COc1ccc(-c2oc3ncnc(N)c3c2-c2ccc(NC(=O)Nc3cc(C(F)(F)F)ccc3F)cc2)cc1 | 0.838 | 6.69 | 0.706 | 5.01 | 1.3 | 4.32 | 1.64 | 8.98 | 0.952 µM | 3.58 | 1.01 µM | 3.5 | 0.00588 µM | 1.51 | 1.52 | 4.41 µM | 0.67 µM | 3.37 | 1.14 µM | 4.16
3 | Cc1ccc(NC(=O)CCc2nnc3s/c(=C\C=C\c4ccccc4)c(=O)n23)cc1 | – | > 100 | – | > 100 | – | > 87.2 | – | 79.8 | – | > 100 | – | > 91.9 | – | > 100 | – | > 100 µM | – | > 100 | – | > 100
4 | Oc1cccc2cccnc12 | – | > 100 | – | > 100 | – | – | – | – | 0.904 µM and 3.9 µM and 2.36 µM | > 100 | > 20.7 µM and 8.34 µM | > 74.5 | 3.04 µM and 14 µM and 5.1 µM | > 100 | – | 36.7 µM and 45.2 µM and > 71.7 µM | 51.5 µM and 8.42 µM and 47.7 µM | > 100 | 20.9 µM and 68.8 µM and 18.2 µM | > 100
5 | COc1ccc(NC(=O)c2ccc(C(F)(F)F)nc2Nc2ccc(Cl)cc2C)cc1Cl | 4.41 | 18.9 | 4.39 | 17.8 | 3.15 | 16.2 | 1.56 | 4.93 | 4.09 µM | 14.7 | 7.33 µM | 21 | 6.03 µM | 28 | 4.09 | 18.7 µM | 17.3 µM | 41.6 | 3.75 µM | 14.2
6 | COc1cc(OCCCN2CCCC2)ccc1Nc1ncc(Cl)c(Nc2ccccc2P(C)(C)=O)n1 | 2.02 | 5.64 | 2.28 | 6.31 | 2.75 | 12 | 3.95 | 26 | 1.37 µM | 5.36 | 2.24 µM | 6.21 | 2.63 µM | 11 | 3.71 | 15.8 µM | 0.983 µM | 4.91 | 1.91 µM | 36.4
7 | CC1(C)N=C(N)N=C(N)N1c1cccc(CCCCc2ccc(Cl)c(S(=O)(=O)F)c2)c1 | 21.3 | > 100 | > 100 | > 100 | 5.58 | 18.5 | 1.82 | 19.2 | 0.455 µM | 15.8 | 8.53 µM | 25.4 | 1.79 µM | 15.6 | 0.612 | 12.9 µM | 10.7 µM | 39.3 | 4.09 µM | 17.1
8 | FC(F)(F)c1cccc(Oc2ccc(Nc3ncnc4ccc(OCCCN5CCOCC5)cc34)cc2Cl)c1 | 1.34 | 6.62 | 1.19 | 2.5 | 1.46 | 3.56 | 1.97 | 6.41 | 1.69 µM | 3.23 | 2.54 µM | 6.1 | 2.29 µM | 5.59 | 1.75 | 3.15 µM | 2.02 µM | 9.74 | 2.42 µM | 10.3
9 | Cc1cc(C)c([I+]c2c(C)cc(C)cc2C)c(C)c1 | 1.43 | 4.15 | 1.57 | 3.7 | 0.379 | 1.62 | – | – | – | – | 0.482 µM | 1.61 | – | – | 0.201 | 0.476 µM | 0.712 µM | 2.06 | 0.622 µM | 2.02
10 | COc1nc2c(c(=O)n1C)CN(c1ccccc1)C(=O)CN2C | 20.1 | > 100 | 5.73 | > 100 | 38.4 | > 100 | 33.9 | > 100 | > 100 µM | > 100 | > 100 µM | > 100 | 27.3 µM | > 100 | 26.9 | > 100 µM | 51.1 µM | > 100 | 61.1 µM | > 100
11 | N[C@@H](Cc1c[nH]c2ccccc12)C(=O)NC1CCN(Cc2c[nH]c3ccc(Cl)cc23)CC1 | 17.8 | 47.4 | 13 | 26.4 | 10.5 | 22.5 | 2.79 | 9.6 | 4.79 µM | 16.8 | 16.6 µM | 31.8 | 4.6 µM | 16.9 | 13.1 | 25.9 µM | 13.4 µM | 27.2 | 8.76 µM | 21.2
12 | Oc1c(CN2CCCCC2)ccc2cccnc12 | 0.52 | 3.23 | 0.566 | 5.42 | 2.41 | 8.22 | 3.97 | > 100 | 4.26 µM | 18 | 4.03 µM | 24.4 | 3.91 µM | 19.6 | 3.56 | 42.6 µM | 3.98 µM | 42.9 | 5.42 µM | 36.4
13 | O=C(Nc1ccc(Cl)cc1)c1cc(NCc2cc(O)ccc2O)ccc1O | 4.09 | 18.2 | 1.45 | 3.21 | 2.9 | 9.9 | 3.28 | 32.9 | 4.14 µM | 22.8 | 12.2 µM | 27.3 | 3.33 µM | 14.6 | 6.12 | 20 µM | 11.1 µM | 23.6 | 13.2 µM | 26.9
14 | CCCCNC(=O)Oc1ccc(/C(=C(\C)c2ccc(OC)cc2)c2ccc(OCCN3CCCCC3)cc2)cc1 | 1.94 | 3.92 | 1.71 | 4.01 | 2.09 | 4.51 | 3.12 | 71.9 | 2.45 µM | 6.15 | 4.65 µM | 17.4 | 2.35 µM | 5.91 | 1.68 | 3.08 µM | 9.41 µM | 23.3 | 6.5 µM | 21.4
15 | C[C@]12CC[C@@H]3c4ccc(O)cc4CC[C@H]3[C@@H]1CC(Cc1ccccc1)(Cc1ccccc1)C2=O | 25.6 | 45.3 | 15.8 | 31.3 | 16 | 38.3 | 9.11 | 32.8 | 14.2 µM | 30 | 24.8 µM | 53.6 | 11.5 µM | 38 | 17.9 | 31.8 µM | 19.9 µM | 43 | 15.1 µM | 30.5
16 | [Mn+3].[O-][Cl+3]([O-])([O-])O.[O-]c1ccccc1C=NCCN1CC1.[O-]c1ccccc1C=NCCN1CC1 | 28.8 | 68.1 | > 100 | > 100 | 19.6 | 40.1 | 5.57 | 25.4 | 17.1 µM | > 100 | 48.5 µM | > 100 | 17 µM | 39 | 17.6 | 80.8 µM | 50.7 µM | > 100 | 22.7 µM | > 100
17 | CCOc1ccc(Nc2ccnc3cc(Cl)ccc23)cc1 | > 100 | > 100 | > 100 | > 100 | > 100 | > 100 | > 100 | > 100 | > 100 µM | > 100 | > 100 µM | > 100 | 84.1 µM | > 100 | > 100 | > 100 µM | > 100 µM | > 100 | > 100 µM | > 100
18 | C#Cc1cccc(Nc2nc(C)nc3cc(NC(=O)CCl)ccc23)c1 | 2.97 | 6.23 | 3.24 | 6.74 | 2.7 | 6.06 | 0.719 | 2.27 | 0.659 µM | 1.93 | 3.9 µM | 7.9 | 4.13 µM | 8.15 | 3.56 | 7.04 µM | 3.52 µM | 6.77 | 3.67 µM | 7.08
19 | CCC(CO)Nc1nc(NCc2ccccc2)c2n[nH]c(C(C)C)c2n1 (centres undefined) | 3 | 16.2 | 7.43 | 21.9 | 7.32 | 22.7 | 11.1 | 46.3 | 4.76 µM | 18 | 5.15 µM | 21.4 | 10.2 µM | 23.1 | 4.91 | 17.3 µM | 13.7 µM | 33.1 | 3.73 µM | 16.6
20 | CC1(C)CC[C@]2(C(=O)NCCNCCN)CC[C@]3(C)C(=CC[C@@H]4[C@@]5(C)CCC(=O)C(C)(C)[C@@H]5CC[C@]43C)[C@@H]2C1 | 1.82 | 4.47 | 1.65 | 3.06 | 1.85 | 3.29 | 2.44 | 6.15 | 1.8 µM | 3.56 | 1.94 µM | 4.05 | 1.85 µM | 3.4 | 1.8 | 3.22 µM | 1.91 µM | 4.1 | 1.85 µM | 3.41
21 | Cc1cccc2c(=O)c3c(sc12)c(NCCCN)nc1ccccc13 | 1.18 | 2.47 | 1.06 | 2.29 | 1.68 | 3.16 | 1.35 | 3.06 | 1.19 µM | 2.66 | 1.85 µM | 3.65 | 1.65 µM | 3.21 | 1.74 | 3.18 µM | – | – | 1.39 µM | 2.78
22 | COc1ccc2c(c1)c1ccc3c(c1n2C)C(=O)C=CC3=O | – | 18.6 | – | 24.5 | – | 20.5 | – | 4.5 | – | 10.7 | – | 34.7 | – | 35.8 | – | 43.6 µM | – | 17.4 | – | 15
23 | O=c1cc(-c2ccccc2)oc2c(O)c(O)ccc12 | 7.18 | 61.2 | 3.02 | 29 | 2.19 | 6.18 | 5.09 | > 100 | 6.66 µM | > 100 | 44.9 µM | > 100 | 10.3 µM | > 100 | 12.5 | 45.2 µM | 7.5 µM | 71.1 | 8.66 µM | > 100
24 | Cn1cnc(SC2=CC(=O)C=C3S[C@H]4C[C@@]23c2c(c(O)c3c5c2=NCCC=5C=N3)N4)c1CC(N)C(=O)O (some centres undefined) | 18.7 | 33.3 | 16.4 | 30.3 | 3.24 | 10.7 | 2.99 | 8.98 | – | 9.52 | 9.62 µM | 24.7 | 12.7 µM | 25.4 | 14.5 | 27.6 µM | 18 µM | 36.9 | – | 32
25 | C/C(COc1ccc2oc(-c3ccccc3)cc(=O)c2c1)=N\O | 32.5 | > 100 | 11.2 | > 100 | 7.39 | 54.2 | 89.2 | > 100 | 26.2 µM | > 100 | > 100 µM | > 100 | 2.39 µM | 39.7 | – | – | 22.6 µM | 94.7 | 48.5 µM | > 100
26 | C=C(C)[C@@H]1C/C=C(/COC(C)=O)CC[C@H]2O[C@@]2(C)CC/C=C(\C)CC1 | > 100 | > 100 | 30.4 | > 100 | > 100 | > 100 | 28.4 | 82.3 | – | – | > 100 µM | > 100 | > 100 µM | > 100 | > 100 | > 100 µM | > 100 µM | > 100 | > 100 µM | > 100
